Experimental data: patent US7595003B2, “On-board water treatment and management process and apparatus” (priority 2004, dated 2009)
Where “and” joins values, the source holds several entries; their conditions need not be identical. Equal values may be shown once.

Tests used:
[1] = 20° C.; cited from earlier work
[2] = test system: B. subtilis var. niger endospores ATCC 9372; test: batch challenge of B. subtilis endospores in deionized buffered water, plate count; assay type: cell-based, Bacillus subtilis
[3] = ozone mass transport into water in acoustic reactor; assay type: physicochemical; details: high acoustic intensity (215 dB) versus low acoustic intensity (205 dB, nominally same as sparger)
Procedure: Adopting the same approach as above, acoustic energy at 205 and 215 dB re 1 μPa at 75 Hz was supplied along with the ozone over the same range of concentration. The acoustic pressure signal of the sonic devices was detected with a hydrophone sensor placed in the reactor. A typical 214 dB signal is shown in the captured trace in FIG. 11. In this series of experiments with a constant 1.5 mg/L concentration, the applied power of the ozone generator was constant; i.e., it was not controlled by the feedback of the dissolved ozone concentration controller. Higher intensity of applied acoustic energy appears to correlate to an increase in ozone mass transport. Utilizing the slopes of the ozone concentration curves, one can calculate an apparent mass transfer coefficient about 40% greater for the high acoustic intensity than for the low acoustic intensity, which was nominally the same as the sparger. This effect has been noted in other applications of ozone mixing, specifically in the oxidative treatment of waste streams. Intensity of this magnitude corresponds to pressure fluctuations of over 8 psi.

[4] = test system: organisms contained in the ballast water; test: batch challenge of unfortified actual ballast water; assay type: cell-based
Procedure: The basic approach was evaluated with batch challenging of actual ballast water. The water came from the hold of a ship originating from Port Moin, Costa Rica. Ballast water in the ship was sampled in the Port of Philadelphia, and the biota in the samples was characterized by the Bigelow Laboratory for Ocean Sciences. About 80% of the water was taken on or exchanged in the Caribbean, while it is believed that the remaining 20% came from the port of origin. The water had been in the ballast tanks for 21 days, and total ballast capacity of the vessel was 265 cubic meters. The samples were drawn at the 73 cubic meter level.
A challenge was made of unfortified ballast water (without B. subtilis endospores) to assess the killing of organisms contained in the ballast water. For this test, an applied ozone power of 660 watts was used with 0.8 m^3hr^−1. The samples were quenched by adding 10 ml of 1% sodium thiosulfate to the 1 L HDPE collection bottles prior to collecting the samples. A control sample without ozone treatment or quenchant was submitted along with a control containing the quenchant without treatment.
The treatment times for the samples were in one-minute increments from one to five minutes.

bacteria and fungi = test: flowing system (Phase II): culture tests for the presence of bacteria and fungi; assay type: cell-based; parameters: key to growth in TM (test medium) / growth in M (malt broth) / growth in PM (peptonemethylamine broth) / growth in P (peptone broth) / growth in BP: Bacterial growth (Bac); Phytoplankton (PHY)
Procedure: Bigelow Laboratory inoculated 200 μL of sample into various media the day after the samples were collected. The flow rate, water pressure (PSI), temperature, ultrasonic treatment system (UTS) and ozone treatment values were provided by ETI. The hydrogen ion concentration (pH) and salinity values were determined at Bigelow Laboratory. Culture treatments included tests for the presence of bacteria and fungi [peptonemethylamine broth (PM), peptone broth (P), test medium (TM), malt broth (M)] and tests for the presence of phytoplankton [DY-V medium, freshwater (DYV), K medium, oceanic (K), L1+NH4, coastal (L1+NH4), black sea medium, brackish at 16 psu (Blk Sea), L1/24 medium, coastal at 24 psu (L1/24), Prov medium, coastal enriched with soil extract (Prov)]. Bacterial growth (Bac) developed in all of the bacterial test media. Phytoplankton (PHY) grew in all algal growth media (see footnotes for details).
(§1) A summary of data is provided in Table 6, below, from a second batch of harbor water samples that were likewise examined by Bigelow Laboratory the day after they were collected. 200 μL of sample was inoculated into various media. The flow rate, water pressure (PS), temperature, ultrasonic treatment system (UTS) and ozone treatment values were provided by ETI. The hydrogen ion concentration (pH) and salinity values were determined at Bigelow Laboratory. Culture treatments included tests for the presence of bacteria and fungi [peptonemethylamine broth (PM), peptone broth (P), test medium (TM), malt broth (M)] and tests for the presence of phytoplankton [DY-V medium, freshwater (DYV), K medium, oceanic (K), L1+NH4, coastal (L1+NH4), black sea medium, brackish at 16 psu (Blk Sea), L1/24 medium, coastal at 24 psu (L1/24), Prov medium, coastal enriched with soil extract (Prov)]. Bacterial growth (Bac) developed in all of the bacterial test media. Zooflagellates (Zoo) grew in all algal growth media from inlet and strainer samples but none from the outlet samples.
as §1, with “In table 7, below, a” for “A”, “provided” for “provided in Table 6, below,”, “all” for “all of the bacterial”, “media without ozone treatment or growth (Bac) developed” for “media. Zooflagellates (Zoo) grew”, “test” for “algal growth”, “without ozone treatment or with a flow rate over 30 gpm.” for “from inlet and strainer samples but none from the outlet samples.”
as §1, with “In table 8, below, a” for “A”, “provided” for “provided in Table 6, below,”, “(PSI),” for “(PS),”, “Bacterial growth (Bac) developed in all of the bacterial test media. Zooflagellates (Zoo) grew in all algal growth media from inlet and strainer samples but none from the outlet samples.” left out

phytoplankton = test: flowing system (Phase II): culture tests for the presence of phytoplankton; assay type: cell-based; parameters: key: Bacterial growth (Bac); Phytoplankton (PHY); details: outlet, 125 gpm, UTS Full, ozone Full (1.0 mg/L), 8 psu; samples 3A, 4A
invertebrates = details: typical applications; cited from earlier work
Cryptosporidium oocysts = details: exposure for 1 minute; cited from earlier work
[5] = ozone power 660 watts, 0.8 m^3hr^−1, treatment 1 to 5 minutes
[6] = outlet, 125 gpm, UTS Full, ozone Full (1.0 mg/L), 8 psu, samples 3A, 4A
[7] = sample 17A: outlet, 10 gpm, UTS Full, ozone 60.0%, 7 psu
[8] = sample 20A: outlet, 30 gpm, UTS Full, ozone 60.0%, 7 psu
[9] = sample 23A: outlet, 50 gpm, UTS Full, ozone 60.0%, 7 psu
[10] = sample 26A: outlet, 88 gpm, UTS Full, ozone 60.0%, 7 psu
[11] = sample 35A: outlet, 50 gpm, UTS Full, ozone Full (1.0 mg/L), 9 psu, one of the triplicate cultures had bacteria
[12] = sample 36A: outlet, 50 gpm, UTS Off, ozone Full (1.0 mg/L), 9 psu
[13] = sample 38A: outlet, 100 gpm, UTS Full, ozone Full (1.0 mg/L), 9 psu, triplicate

OBr [Hypobromous acid]
pKa [1]: 8.8

O=[O+][O-] [Ozone, ozone]
ozone concentration time value required to lower viable B. subtilis endospores by 99.9% ([2]; buffered water (pH 7.8), no additional ozone demand): about 4 | log 3 ozone concentration time value ([2]; ozone only (diffuser), no acoustic energy, deionized water): 4.46 and 4.5 | log of colony forming units per mL ([2]; ozone setpoint 1.5 mg/L, diffuser, no acoustic energy, deionized water, at 5 minutes, about 5 at 0 minutes): about 2 | log 3 ozone concentration time value ([2]; ozone with acoustic energy, intensity increased to 215 dB, 75 Hz, deionized water): 4.0 | apparent mass transfer coefficient, increase [3]: about 40% | culture media tests of treated samples ([4]; one-minute treated sample, DYU medium, the only positive of thirty tests): positive growth of a green coccoid alga | bacteria and zooflagellates in treated samples [4, 5]: positive | ciliates, dinoflagellates, nematodes in treated samples [4, 5]: no ciliates, dinoflagellates, nematodes, etc., observed | life in treated samples [4, 5]: nearly devoid of life | bacteria in outlet samples (bacteria and fungi; full ozone treatment, flow rates of 30 gpm or less, 21-day incubation): killed all bacteria | growth in M (malt broth) (bacteria and fungi; [6]): Bac | growth in P (peptone broth) (bacteria and fungi; [6]): Bac | growth in PM (peptonemethylamine broth) (bacteria and fungi; [6]): Bac | growth in TM (test medium) (bacteria and fungi; [6]): Bac | growth in M (malt broth) (bacteria and fungi; [7]): Bac | growth in P (peptone broth) (bacteria and fungi; [7]): Bac | growth in PM (peptonemethylamine broth) (bacteria and fungi; [7]): Bac | growth in TM (test medium) (bacteria and fungi; [7]): Bac | growth in M (malt broth) (bacteria and fungi; [8]): Bac | growth in P (peptone broth) (bacteria and fungi; [8]): Bac | growth in PM (peptonemethylamine broth) (bacteria and fungi; [8]): Bac | growth in TM (test medium) (bacteria and fungi; [8]): Bac | growth in M (malt broth) (bacteria and fungi; [9]): Bac | growth in P (peptone broth) (bacteria and fungi; [9]): Bac | growth in PM (peptonemethylamine broth) (bacteria and fungi; [9]): Bac | growth in TM (test medium) (bacteria and fungi; [9]): Bac | growth in M (malt broth) (bacteria and fungi; [10]): Bac | growth in P (peptone broth) (bacteria and fungi; [10]): Bac | growth in PM (peptonemethylamine broth) (bacteria and fungi; [10]): Bac | growth in TM (test medium) (bacteria and fungi; [10]): Bac | growth in M (malt broth) (bacteria and fungi; [11]): Bac^3 | growth in PM (peptonemethylamine broth) (bacteria and fungi; [11]): Bac^2 | growth in TM (test medium) (bacteria and fungi; [11]): Bac^3 | growth in BP (bacteria and fungi; [12]): Bac | growth in M (malt broth) (bacteria and fungi; [12]): Bac | growth in TM (test medium) (bacteria and fungi; [12]): Bac | growth in BP (bacteria and fungi; [13]): Bac | growth in M (malt broth) (bacteria and fungi; [13]): Bac | growth in PM (peptonemethylamine broth) (bacteria and fungi; [13]): Bac | growth in TM (test medium) (bacteria and fungi; [13]): Bac | growth in Blk Sea (black sea medium, brackish at 16 psu) (phytoplankton): PHY^6 | growth in DYV (DY-V medium, freshwater) (phytoplankton): PHY^3 | growth in K (K medium, oceanic) (phytoplankton): PHY^4 | growth in L1 + NH4 (coastal) (phytoplankton): PHY^5 | growth in L1/24 (coastal at 24 psu) (phytoplankton): PHY^7 | growth in Prov (coastal enriched with soil extract) (phytoplankton): PHY^8 | contact dosage needed to kill invertebrates (invertebrates): ~0.3 mg/L | ozone concentration killing Cryptosporidium oocysts (Cryptosporidium oocysts): about 1.5 mg/L
